Results taken from ChEMBL document CHEMBL1201862, “PubChem BioAssay data set” (2004).
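Protocol summary: plate cells (96-well), add compound at 5 concentrations, incubate 48 h, interpolate endpoints linearly. Here, GI50 denotes the concentration required for 50% inhibition of growth.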 Calls of active or inactive are those of the source. No stated cut-off is given here; in the data, active = GI50 up to about 1.1 µM and inactive = higher.

Legend:
Assay in all cases: NCI anticancer screen, dose series, 48 h
A498 = system: A498
A549 = system: A549
CAKI-1 = system: CAKI-1
COLO 205 = system: COLO 205
HCT-116 = system: HCT-116
HL-60 = system: HL-60
HT-29 = system: HT-29
K562 = system: K562
KM12 = system: KM12
LOX IMVI = system: LOX IMVI
MOLT-4 = system: MOLT-4
Malme-3M = system: Malme-3M
NCI/ADR-RES = system: NCI/ADR-RES
OVCAR-3 = system: OVCAR-3
OVCAR-8 = system: OVCAR-8
SF-268 = system: SF-268
SF-295 = system: SF-295
SK-MEL-28 = system: SK-MEL-28
SW-620 = system: SW-620
UACC-62 = system: UACC-62

| SMILES | GI50 (A498) | GI50 (A549) | GI50 (CAKI-1) | GI50 (COLO 205) | GI50 (HCT-116) | GI50 (HL-60) | GI50 (HT-29) | GI50 (K562) | GI50 (KM12) | GI50 (LOX IMVI) | GI50 (MOLT-4) | GI50 (Malme-3M) | GI50 (NCI/ADR-RES) | GI50 (OVCAR-3) | GI50 (OVCAR-8) | GI50 (SF-268) | GI50 (SF-295) | GI50 (SK-MEL-28) | GI50 (SW-620) | GI50 (UACC-62) |
| --- | --- | --- | --- | --- | --- | --- | --- | --- | --- | --- | --- | --- | --- | --- | --- | --- | --- | --- | --- | --- |
| CCCSc1ccc2[nH]c(N3C(=O)/C(=C/c4cc(OC)c(OC)c(OC)c4)N=C3c3ccccc3)cc2c1 | 0.871 µM (active) | 0.553 µM (active) | 11.9 µM (inactive) | 8.43 µM (inactive) | 16.5 µM (inactive) | 5.66 µM (inactive) | 7.82 µM (inactive) | 8.43 µM (inactive) | 1.65 µM (inactive) | 12.2 µM (inactive) | 10.9 µM (inactive) | 13.9 µM (inactive) | 11.6 µM (inactive) | 9.12 µM (inactive) | 12.6 µM (inactive) | 11 µM (inactive) | 1.25 µM (inactive) | 12.9 µM (inactive) | 10.9 µM (inactive) | 8.61 µM (inactive) |
| Cc1c2ccnc(C(F)(F)F)c2cc2c1[nH]c1ccccc12 | 11.4 µM (inactive) | > 125 µM (inactive) | > 125 µM (inactive) | > 125 µM (inactive) | > 125 µM (inactive) | > 125 µM (inactive) | > 125 µM (inactive) | > 125 µM (inactive) | 121 µM (inactive) | > 125 µM (inactive) | 85.1 µM (inactive) | 98.2 µM (inactive) | > 125 µM (inactive) | 114 µM (inactive) | 110 µM (inactive) | 101 µM (inactive) | 23.2 µM (inactive) | > 125 µM (inactive) | > 125 µM (inactive) | > 125 µM (inactive) |
| CCCn1c(CN(Cc2nc3ccccc3n2CCC)Cc2nc3ccccc3n2CCC)nc2ccccc21 | 4.74 µM (inactive) | 2.59 µM (inactive) | 2.81 µM (inactive) | 2.81 µM (inactive) | 1.74 µM (inactive) | 0.764 µM (active) | 2.25 µM (inactive) | 1.23 µM (inactive) | 4.68 µM (inactive) | 3.7 µM (inactive) | 3.21 µM (inactive) | 4.94 µM (inactive) | 8.69 µM (inactive) | 3.37 µM (inactive) | 2.25 µM (inactive) | 3.99 µM (inactive) | 8.55 µM (inactive) | 10.7 µM (inactive) | 5.11 µM (inactive) | 3.7 µM (inactive) |
| CC(O)C(O)C(N)CC=O (stereo not given) | 36.1 µM (inactive) | > 500 µM (inactive) | > 500 µM (inactive) | > 500 µM (inactive) | > 500 µM (inactive) | 495 µM (inactive) | > 500 µM (inactive) | > 500 µM (inactive) | > 500 µM (inactive) | 499 µM (inactive) | > 500 µM (inactive) | > 500 µM (inactive) | > 500 µM (inactive) | > 500 µM (inactive) | > 500 µM (inactive) | > 500 µM (inactive) | > 500 µM (inactive) | > 500 µM (inactive) | > 158 µM (inactive) | > 500 µM (inactive) |
